# Results taken from patent US20100041892A1, “Therapeutic agent for diabetes” (priority 2005, published 2010).
# Like-named read-outs stand apart in the source and are kept apart here.
# Tests used:
# PPARγ-RXRα heterodimer = target: T1, PPARγ-RXRα heterodimer (Homo sapiens, UniProt P37231); test: PPARγ-RXRα heterodimer ligand activity (luciferase reporter, PPARγ:RXRα:4ERPP/CHO-K1 cells); assay type: cell-based; conditions: concentration showing 50% of the maximum luciferase induction rate; CHO-K1 reporter cells, one day incubation
# T1 construct: expressed in transfected cells; host or cells: CHO-K1 (PPARγ:RXRα:4ERPP/CHO-K1)
# T1 sequence (P37231 1-477 isoform P37231-2): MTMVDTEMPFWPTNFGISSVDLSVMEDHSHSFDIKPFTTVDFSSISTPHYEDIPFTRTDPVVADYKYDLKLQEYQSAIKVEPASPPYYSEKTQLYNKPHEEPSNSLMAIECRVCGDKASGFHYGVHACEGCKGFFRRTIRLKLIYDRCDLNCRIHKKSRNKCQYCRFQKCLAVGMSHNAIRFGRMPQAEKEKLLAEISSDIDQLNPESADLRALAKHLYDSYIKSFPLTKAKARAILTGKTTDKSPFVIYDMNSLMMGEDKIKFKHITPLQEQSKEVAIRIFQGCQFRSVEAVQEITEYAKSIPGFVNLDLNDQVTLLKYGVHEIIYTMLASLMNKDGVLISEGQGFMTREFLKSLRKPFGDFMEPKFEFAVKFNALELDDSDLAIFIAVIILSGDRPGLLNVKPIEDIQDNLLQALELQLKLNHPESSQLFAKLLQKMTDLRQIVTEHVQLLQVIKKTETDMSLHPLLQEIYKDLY
# T1 sequence (P19793 1-462 partner): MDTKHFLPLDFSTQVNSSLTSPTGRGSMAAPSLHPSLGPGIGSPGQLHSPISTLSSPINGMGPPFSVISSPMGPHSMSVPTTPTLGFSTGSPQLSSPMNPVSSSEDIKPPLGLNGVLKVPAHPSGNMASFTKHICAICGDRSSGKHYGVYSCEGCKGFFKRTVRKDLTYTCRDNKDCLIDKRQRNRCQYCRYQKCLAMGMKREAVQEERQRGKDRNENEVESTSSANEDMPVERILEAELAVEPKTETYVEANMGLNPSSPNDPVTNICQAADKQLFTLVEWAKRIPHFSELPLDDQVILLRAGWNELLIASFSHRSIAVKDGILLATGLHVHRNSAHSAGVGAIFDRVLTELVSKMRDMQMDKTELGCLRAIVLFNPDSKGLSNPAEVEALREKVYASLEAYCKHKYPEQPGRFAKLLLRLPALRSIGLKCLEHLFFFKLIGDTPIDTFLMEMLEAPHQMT
# Method in brief: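 CHO-K1 cells expressing PPARγ:RXRα with a 4ERPP reporter were exposed to compound for one day at 37° C in Ham F12 containing 0.1% fatty acid-free BSA, then read for luciferase. Induction rate was taken relative to untreated cells as 1, and EC50 is the concentration giving 50% of maximal induction.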
# KKAy mice = test: Blood glucose and blood lipid (triglyceride) lowering action in mice; assay type: in vivo; conditions: Mus musculus, 4TO7, po, 0.01% in powder diet, 4 to 7 days
# Method in brief: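 KKAy mice (9 to 14-week-old, 5 per group) fed compound in powder diet at 0.01% (some at 0.03% or 0.005%) ad libitum for 4 to 7 days. Orbital plexus blood drawn; plasma glucose and triglyceride quantitated by enzyme method.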
# [1] = plasma glucose relative to non-administration group = 100%, read-out: hypoglycemic action (%)
# [2] = plasma triglyceride relative to non-administration group = 100%, read-out: hypolipidemic action (%)
SMILES,EC50 (PPARγ-RXRα heterodimer),response vs control in vivo at 0.01 % (KKAy mice; [1]),response vs control in vivo at 0.01 % (KKAy mice; [2]),melting point
"CCCCCS(=O)(=O)NC(=O)/C=C/c1ccc(OC(COCC)COCC)cc1Oc1ncc(C(F)(F)F)cc1Cl [Example 198, (2E)-3-{2-{[3-chloro-5-(trifluoromethyl)pyridin-2-yl]oxy}-4-[2-ethoxy-1-(ethoxymethyl)ethoxy]phenyl}-N-(pentylsulfonyl)acrylamide]",7.8 nM,62%,84%,83 to 85.5 °C
"COCCOc1ccc(CCCOC(=O)NS(=O)(=O)NC2CCC(C)CC2)c(Oc2ncc(C(F)(F)F)cc2Cl)c1 (stereo not shown) [Example 205, 3-[2-{[3-chloro-5-(trifluoromethyl)pyridin-2-yl]oxy}-4-(2-methoxyethoxy)phenyl]propyl {[(4-methylcyclohexyl)amino]sulfonyl}carbamate]",3.1 nM,54%,50%,121.5 to 121.8 °C
"COCCOc1ccc(CCCOC(=O)NS(=O)(=O)NCCc2cccs2)c(Oc2ncc(C(F)(F)F)cc2Cl)c1 [Example 207, 3-[2-{[3-chloro-5-(trifluoromethyl)pyridin-2-yl]oxy}-4-(2-methoxyethoxy)phenyl]propyl ({[2-(2-thienyl)ethyl]amino}sulfonyl)carbamate]",0.99 nM,54%,43%,117.5 to 118 °C
"COCCOc1ccc(CCCOC(=O)NS(=O)(=O)NCCc2ccccn2)c(Oc2ncc(C(F)(F)F)cc2Cl)c1 [Example 208, 3-[2-{[3-chloro-5-(trifluoromethyl)pyridin-2-yl]oxy}-4-(2-methoxyethoxy)phenyl]propyl {[(2-pyridin-2-ylethyl)amino]sulfonyl}carbamate]",4 nM,70%,71%,91 to 93 °C
"COCCOc1ccc(CCCOC(=O)NS(=O)(=O)NCCOC(C)C)c(Oc2ncc(Cl)cc2Cl)c1 [Example 429, 3-[2-[(3,5-dichloropyridin-2-yl)oxy]-4-(2-methoxyethoxy)phenyl]propyl {[(2-isopropoxyethyl)amino]sulfonyl}carbamate]",3.8 nM,51%,60%,87.5 to 88.4 °C
"CCOCC(COCC)Oc1ccc(CCCOC(=O)NS(=O)(=O)NCCOC(C)C)c(Oc2ncc(C(F)(F)F)cc2Cl)c1 [Example 430, 3-{2-{[3-chloro-5-(trifluoromethyl)pyridin-2-yl]oxy}-4-[2-ethoxy-1-(ethoxymethyl)ethoxy]phenyl}propyl {[(2-isopropoxyethyl)amino]sulfonyl}carbamate]",0.95 nM,45%,34%,68 to 69.2 °C
"COCCOc1ccc(/C=C/COC(=O)NS(=O)(=O)N2CCCC2)c(Oc2ncc(C(F)(F)F)cc2Cl)c1 [Example 437, (2E)-3-[2-{[3-chloro-5-(trifluoromethyl)pyridin-2-yl]oxy}-4-(2-methoxyethoxy)phenyl]prop-2-en-1-yl (pyrrolidin-1-ylsulfonyl)carbamate]",54 nM,45%,58%,123 to 124 °C
